One experiment has as its target FGFR1-BCR Ba/F3 cells (Homo sapiens, UniProt P11362). Briefly: Ba/F3 cell viability assay (CellTiter-Glo 2.0), FGFR1-BCR Ba/F3. In kind it is cell-based. Conditions: read-out: Ba/F3 Cells FGFR1 (IC50 nM), 48 hours, Cell Titer Glo 2.0. The source says:
(§1) Experimental Purpose: Recombinant kinase fusions are transduced into parental Ba/F3, which becomes dependent upon this constitutive kinase activity for IL3-independent survival. Inhibition of kinase activity leads to cell death, which is monitored using CellTiter-Glo® 2.0 (Promega) which measures intracellular ATP concentration that in turn serves as a marker for viability. FGFR1-BCR Ba/F3 and FGFR3-BAIAP2L1 Ba/F3 were obtained from Advanced Cellular Dynamics (Seattle, WA)
(§2) Cell Viability Assay Procedure: Cell Titer-Glo® 2.0 Luminescent cell viability assay reagent was purchased from Promega (Madison, WI). FGFR1-BCR Ba/F3 and FGFR3-BAIAP2L1 Ba/F3 cells were cultured in RPMI1640 media supplemented with 10% fetal bovine serum. Cultures were maintained at 37° C. in a humidified atmosphere of 5% C02 and 95% air.
(§3) Cells were plated in 96-well clear bottom/white plates (Corning #3903) at 10,000 cells/well in 100 μl of media, incubated overnight. The next day, test compound DMSO stock solutions were made at 10 mM and 2 μM final concentration. Compounds were then added to cells in a 9-dose, 10-fold dilution series starting at 30 μM with an HP 300e Digital Dispenser (each dose was applied in triplicate). DMSO was backfilled to each well up to 301 nL total volume of test compound+DMSO, and a total of 301 nL DMSO was added to a control/no test compound well in triplicate. The cells in cell culture plates were incubated with the compounds at 37° C. and 5% C02 for 48 hours. Then 50 μl of Cell Titer Glo 2.0 reagent was added to each well of the cell culture plates. The contents were covered from light and mixed on an orbital shaker at room temperature for 10 min. Luminescence was recorded by a Synergy H1 Microplate Reader (Biotek, Winooski, VT). Cells were assessed as a percentage of DMSO only treated control cells. Curves were plotted and IC50 values were calculated using the GraphPad Prism 8 program based on a sigmoidal dose-response equation (4 parameter).

The target of experiment [1] is FGFR3-BAIAP2L1 Ba/F3 cells (Homo sapiens, UniProt P22607). In words: Ba/F3 cell viability assay (CellTiter-Glo 2.0), FGFR3-BAIAP2L1 Ba/F3. In kind it is cell-based. Conditions: for Ba/F3 FGFR1/FGFR3 Selectivity: FGFR3 > FGFR1 selectivity ratio in Ba/F3 FGFR fusion cell based assays; for IC50: read-out: Ba/F3 Cells FGFR3 (IC50 nM), FGFR3-BAIAP2L1 Ba/F3 cells, 48 hours, Cell Titer Glo 2.0.
Sequence of FGFR3-BAIAP2L1 Ba/F3 cells (P22607 23-806 limits assumed, change not shown): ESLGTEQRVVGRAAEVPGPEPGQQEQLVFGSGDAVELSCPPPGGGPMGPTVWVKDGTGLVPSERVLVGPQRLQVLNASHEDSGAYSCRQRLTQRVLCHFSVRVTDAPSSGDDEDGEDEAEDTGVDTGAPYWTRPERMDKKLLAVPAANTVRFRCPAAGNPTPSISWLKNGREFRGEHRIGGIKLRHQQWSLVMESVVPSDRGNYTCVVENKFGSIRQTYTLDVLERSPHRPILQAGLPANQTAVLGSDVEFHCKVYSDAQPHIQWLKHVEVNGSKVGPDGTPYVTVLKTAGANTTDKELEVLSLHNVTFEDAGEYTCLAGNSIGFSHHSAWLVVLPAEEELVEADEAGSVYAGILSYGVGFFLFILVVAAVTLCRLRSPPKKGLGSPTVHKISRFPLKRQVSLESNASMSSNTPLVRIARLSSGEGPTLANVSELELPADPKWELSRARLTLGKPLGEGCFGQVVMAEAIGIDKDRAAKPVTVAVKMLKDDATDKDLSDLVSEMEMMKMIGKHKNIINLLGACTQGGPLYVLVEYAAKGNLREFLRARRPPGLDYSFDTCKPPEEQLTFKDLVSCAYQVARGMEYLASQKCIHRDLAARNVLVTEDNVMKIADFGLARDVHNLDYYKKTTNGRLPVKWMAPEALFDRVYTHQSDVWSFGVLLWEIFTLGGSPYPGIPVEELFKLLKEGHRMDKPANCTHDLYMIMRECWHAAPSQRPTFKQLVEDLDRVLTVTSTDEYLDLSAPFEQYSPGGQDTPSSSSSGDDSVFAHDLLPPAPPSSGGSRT
From the text: as §1, §2, §3

The target of another experiment is FGFR1 (Homo sapiens (Human), UniProt P11362). In words: Kinase assay, binding constants (Kd), kinase-tagged T7 phage, qPCR. In a few lines: (§4)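 Competition binding: kinase-tagged T7 phage lysates mixed with immobilized biotinylated ligand on streptavidin beads plus compound (11-point 3-fold dilution series, 0.9% DMSO final). Bound kinase eluted with free ligand and quantified by qPCR. Kd from Hill equation fit, slope fixed at −1.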
Sequence of FGFR1 (P11362 22-822): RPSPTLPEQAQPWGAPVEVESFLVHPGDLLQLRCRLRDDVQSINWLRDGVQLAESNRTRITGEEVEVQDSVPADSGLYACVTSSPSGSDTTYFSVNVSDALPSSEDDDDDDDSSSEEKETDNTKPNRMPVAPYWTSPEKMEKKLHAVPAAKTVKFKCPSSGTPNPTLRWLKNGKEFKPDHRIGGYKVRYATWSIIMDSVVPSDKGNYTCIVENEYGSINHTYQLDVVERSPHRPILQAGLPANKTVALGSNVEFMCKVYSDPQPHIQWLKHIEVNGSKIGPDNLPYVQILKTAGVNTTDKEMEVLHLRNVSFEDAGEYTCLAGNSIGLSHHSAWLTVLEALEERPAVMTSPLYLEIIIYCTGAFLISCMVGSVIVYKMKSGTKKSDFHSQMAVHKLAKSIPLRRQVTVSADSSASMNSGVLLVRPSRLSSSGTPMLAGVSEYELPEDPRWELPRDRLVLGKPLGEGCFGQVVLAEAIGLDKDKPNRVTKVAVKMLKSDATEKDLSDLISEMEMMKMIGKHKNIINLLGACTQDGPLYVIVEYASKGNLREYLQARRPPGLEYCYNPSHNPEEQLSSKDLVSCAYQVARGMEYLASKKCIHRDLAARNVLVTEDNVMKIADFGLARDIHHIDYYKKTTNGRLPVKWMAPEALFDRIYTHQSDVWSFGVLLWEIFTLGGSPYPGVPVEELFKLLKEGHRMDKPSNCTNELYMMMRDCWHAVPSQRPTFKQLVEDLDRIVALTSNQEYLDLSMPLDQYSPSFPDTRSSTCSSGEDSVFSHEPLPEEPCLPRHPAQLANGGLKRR

For another experiment, the target named is FGFR2 (Homo sapiens (Human), UniProt P21802). The experiment is described as above. The method, boiled down: as §4
Sequence of FGFR2 (P21802 22-821): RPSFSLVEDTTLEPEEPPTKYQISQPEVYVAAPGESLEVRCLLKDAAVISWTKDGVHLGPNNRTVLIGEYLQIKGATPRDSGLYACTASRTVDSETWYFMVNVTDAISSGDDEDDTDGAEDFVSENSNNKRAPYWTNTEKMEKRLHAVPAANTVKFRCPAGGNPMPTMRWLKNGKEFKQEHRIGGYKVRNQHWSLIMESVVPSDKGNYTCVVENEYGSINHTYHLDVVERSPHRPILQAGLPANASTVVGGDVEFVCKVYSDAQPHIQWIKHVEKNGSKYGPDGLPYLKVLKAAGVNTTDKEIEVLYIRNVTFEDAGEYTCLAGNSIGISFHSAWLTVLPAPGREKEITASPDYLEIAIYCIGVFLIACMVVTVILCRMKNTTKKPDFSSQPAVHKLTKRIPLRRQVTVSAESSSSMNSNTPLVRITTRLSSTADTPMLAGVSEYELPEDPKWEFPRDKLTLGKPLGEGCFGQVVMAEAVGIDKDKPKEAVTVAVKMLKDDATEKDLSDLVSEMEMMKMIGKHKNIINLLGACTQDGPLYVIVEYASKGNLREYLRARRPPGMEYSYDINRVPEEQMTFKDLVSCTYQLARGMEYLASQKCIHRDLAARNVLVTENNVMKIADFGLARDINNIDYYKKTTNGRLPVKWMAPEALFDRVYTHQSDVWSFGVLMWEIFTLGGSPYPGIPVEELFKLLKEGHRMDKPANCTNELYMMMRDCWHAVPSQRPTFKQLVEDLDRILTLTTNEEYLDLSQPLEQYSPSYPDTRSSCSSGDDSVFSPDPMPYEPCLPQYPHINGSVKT
The target in a further experiment is FGFR3 (V555M) (Homo sapiens (Human), UniProt P22607, V555M). The experiment is described as above. Conditions: V555M mutant. The method, boiled down: as §4
Sequence of FGFR3 (V555M) (P22607 23-806 V555M): as the sequence (P22607 23-806 limits assumed, change not shown) above, with V533M counted along it
Another experiment has as its target FGFR3 (Homo sapiens (Human), UniProt P22607). The description is as above. In a few lines: as §4
For another experiment, the target named is FGFR4 (Homo sapiens (Human), UniProt P22455). The description is as above. The method, boiled down:
as §4

Results on six compounds are retold here after patent US20240109865A1, “INDAZOLE COMPOUNDS AS KINASE INHIBITORS” (TYRA BIOSCIENCES, INC., priority 2020, published 2024).

SMILES strings stand for the structures.

Sequence of FGFR3 (P22607 23-806): as the sequence (P22607 23-806 limits assumed, change not shown) above
Sequence of FGFR1-BCR Ba/F3 cells (P11362 22-822 limits assumed, change not shown): as the sequence (P11362 22-822) above
Sequence of FGFR4 (P22455 22-802): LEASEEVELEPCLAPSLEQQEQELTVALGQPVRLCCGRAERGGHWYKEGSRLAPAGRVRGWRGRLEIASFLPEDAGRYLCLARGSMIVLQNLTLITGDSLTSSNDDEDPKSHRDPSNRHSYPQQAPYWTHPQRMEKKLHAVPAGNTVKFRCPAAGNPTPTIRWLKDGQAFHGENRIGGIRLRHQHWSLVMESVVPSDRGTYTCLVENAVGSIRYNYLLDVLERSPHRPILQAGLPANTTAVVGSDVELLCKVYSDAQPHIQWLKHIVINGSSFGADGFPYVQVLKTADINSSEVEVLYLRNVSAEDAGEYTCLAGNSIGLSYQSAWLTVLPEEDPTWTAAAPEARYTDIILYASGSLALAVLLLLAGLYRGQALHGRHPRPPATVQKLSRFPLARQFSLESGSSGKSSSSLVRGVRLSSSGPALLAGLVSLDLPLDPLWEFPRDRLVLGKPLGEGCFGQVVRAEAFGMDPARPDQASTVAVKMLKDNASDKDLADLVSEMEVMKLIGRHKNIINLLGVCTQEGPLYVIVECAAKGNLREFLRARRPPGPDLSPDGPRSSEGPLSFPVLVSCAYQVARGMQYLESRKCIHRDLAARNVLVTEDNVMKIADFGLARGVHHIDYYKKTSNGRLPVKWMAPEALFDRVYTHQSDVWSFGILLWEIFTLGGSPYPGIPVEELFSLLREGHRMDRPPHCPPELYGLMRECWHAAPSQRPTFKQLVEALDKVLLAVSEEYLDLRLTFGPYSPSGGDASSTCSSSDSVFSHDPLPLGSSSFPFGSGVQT

On to `C[C@@H](Oc1ccc2[nH]nc(-c3ccc(N4CC5(CCNCC5)OC4=O)nc3)c2c1)c1c(Cl)cncc1Cl` [Example 74, 3-[5-[5-[(1R)-1-(3,5-dichloro-4-pyridyl)ethoxy]-1H-indazol-3-yl]-2-pyridyl]-1-oxa-3,8-diazaspiro[4.5]decan-2-one], for which the IC50 on FGFR1-BCR Ba/F3 cells lay in the range of 100 to 300 nM; in experiment [1] it was 20 to 100 nM. The “Ba/F3 FGFR1/FGFR3 Selectivity” value in experiment [1] is listed as 6. For the same compound, the Kd on FGFR1, on FGFR2, at FGFR3 (V555M), at FGFR3 and at FGFR4 was 1 to 20 nM in each case.
On to `C[C@@H](Oc1ccc2[nH]nc(-c3ccc(N4CC5(CCN(C)CC5)OC4=O)nc3)c2c1)c1c(Cl)cncc1Cl` [Example 75, 3-[5-[5-[(1R)-1-(3,5-dichloro-4-pyridyl)ethoxy]-1H-indazol-3-yl]-2-pyridyl]-8-methyl-1-oxa-3,8-diazaspiro[4.5]decan-2-one], for which the results for the IC50 (on FGFR1-BCR Ba/F3 cells; in experiment [1]) were 100 to 300 nM and 1 to 20 nM, respectively. In addition, the “Ba/F3 FGFR1/FGFR3 Selectivity” value in experiment [1] came to 14. Also, the Kd on FGFR1, at FGFR2, at FGFR3 (V555M), on FGFR3 and on FGFR4 was 1 to 20 nM throughout.
With `C[C@@H](Oc1ccc2[nH]nc(-c3ccc(N4CCC5(CC4)CCS(=O)(=O)C5)nc3)c2c1)c1c(Cl)cncc1Cl` [Example 78, 8-[5-[5-[(1R)-1-(3,5-dichloro-4-pyridyl)ethoxy]-1H-indazol-3-yl]-2-pyridyl]-2λ^6-thia-8-azaspiro[4.5]decane 2,2-dioxide], the IC50 at FGFR1-BCR Ba/F3 cells lay within 20 to 100 nM; in experiment [1], 1 to 20 nM. Also, the “Ba/F3 FGFR1/FGFR3 Selectivity” value in experiment [1] came out at 13. Further, the dissociation constant Kd at FGFR1, at FGFR2, on FGFR3 (V555M), on FGFR3 and on FGFR4 was 1 to 20 nM throughout.
In the case of `C[C@@H](Oc1ccc2[nH]nc(-c3cnn(C4CCN(CCO)CC4)c3)c2c1)c1c(Cl)cncc1Cl` [Example 79, 2-[4-[4-[5-[(1R)-1-(3,5-dichloro-4-pyridyl)ethoxy]-1H-indazol-3-yl]pyrazol-1-yl]-1-piperidyl]ethanol], the IC50 on FGFR1-BCR Ba/F3 cells was 20 to 100 nM; in experiment [1], 1 to 20 nM. Also, the “Ba/F3 FGFR1/FGFR3 Selectivity” value in experiment [1] is recorded as 14. The Kd on FGFR1, on FGFR2, at FGFR3 (V555M), at FGFR3 and on FGFR4 was 1 to 20 nM in each case.
Regarding `Cc1ncc(Cl)c([C@@H](C)Oc2ccc3[nH]nc(-c4cnn(C5CCN(C)CC5)c4)c3c2)c1Cl` [Example 80, 5-[(1R)-1-(3,5-dichloro-2-methyl-4-pyridyl)ethoxy]-3-[1-(1-methyl-4-piperidyl)pyrazol-4-yl]-1H-indazole], the IC50 lay within 100 to 300 nM on FGFR1-BCR Ba/F3 cells and 1 to 20 nM in experiment [1]. The “Ba/F3 FGFR1/FGFR3 Selectivity” value in experiment [1] is recorded as 17. For the same compound, the Kd on FGFR1 lay in the range of 1 to 20 nM; on FGFR2 it was 1 to 20 nM; at FGFR3 (V555M) it was 1 to 20 nM; on FGFR3 it was 1 to 20 nM; on FGFR4, 100 to 300 nM.
With `C[C@@H](Oc1ccc2[nH]nc(-c3cnn(C4CCN(C(=O)CCN(C)C)CC4)c3)c2c1)c1c(Cl)cncc1Cl` [Example 82, 1-[4-[4-[5-[(1R)-1-(3,5-dichloro-4-pyridyl)ethoxy]-1H-indazol-3-yl]pyrazol-1-yl]-1-piperidyl]-3-(dimethylamino)propan-1-one], the values for the IC50 (on FGFR1-BCR Ba/F3 cells; in experiment [1]) were 100 to 300 nM and 1 to 20 nM, respectively. Besides, in experiment [1], the “Ba/F3 FGFR1/FGFR3 Selectivity” value is reported as 11. Moreover, the Kd on FGFR1 was in the range of 1 to 20 nM; at FGFR2, 1 to 20 nM; at FGFR3 (V555M), 1 to 20 nM; on FGFR3, 1 to 20 nM; at FGFR4, 20 to 100 nM.
